Values after ≈ are worked out from the molar mass of the structure shown. Values joined by “and” are separate entries in the source; they are usually repeats but may differ in a detail not shown here. Identical values can stand only once. Like-named read-outs stand apart in the source and are kept apart here.
Assays:
[1] = test system: linear incision wound sites; assay: Intradermal injection along linear incision wounds, histological evaluation; format: in vivo, minipigs; details: for granulation tissue formation compared to vehicle treated control wounds / presence of myofibroblasts compared to vehicle treated control wounds: 2% suspension (sorafenib 1% suspension); for SMA staining / dermis fibrin / dermis fibroplasia / dermis provisional matrix / epidermis hyperplasia / inflammation / subcutis fibroplasia / subcutis mixed cell infiltrate: microscopic grade over 29 days
Protocol: The purpose of this study was to evaluate the suspension formulation when administered via intradermal injection with axitinib, nintedanib, sorafenib, and lenvatinib to the dorsal skin along linear incisions of minipigs.
Four male minipigs were dosed. Animals were dosed once via intradermal injection along the edges of each of 10 wound sites for each animal (5 wounds on each side of the dorsum [perpendicular to the spine], approximately 3 cm in length and 3 cm distance from the spine). Axitinib, nintedanib, lenvatinib, and the vehicle control article were administered via eight 0.1 mL intradermal injections around each respective wound site (one injection/cm on both sides of the wound), for a total volume of 0.8 mL/wound site. Sorafenib was administered via the same method at a volume of 0.2 mL/injection, for a total volume of 1.6 mL/wound site. The vehicle control article was Vehicle for Test Articles axitinib, nintedanib, lenvatinib, and sorafenib.
A generalized measure of inflammation, including inflammatory cell infiltrate, fibrin deposition, fibroplasia, epithelial hyperplasia and areas of tissue necrosis were assessed microscopically. […] For test agent treated wounds, all were graded as slight on Day 4, and there was no consistent difference over time as compared to the control group.

[2] = Terminal sterilization and stability assay of formulated suspension; format: physicochemical; details: for Assay (% of labeled claim) of Formulated Suspension, 4 months (40° C./75% RH) / Assay (% of labeled claim) of Formulated Suspension, 6 weeks (40° C./75% RH) / Assay (% of labeled claim) of Formulated Suspension, Initial: Gamma irradiation
From the text: (§1) Examples 1-3 depict the results of physical testing of some subject formulations.

[3] = rabbit, in vivo
Protocol: (§2) This study evaluated the local tolerance of vehicle, axitinib, pirfenidone, sorafenib and lenvatinib and ocular distribution of axitinib, sorafenib and lenvatinib (0.3% w/w) when administered by topical ocular instillation in the eyes of New Zealand white rabbits (n=6 per group). […] On Dosing Day 5, the animals were sacrificed and eyes were enucleated. Ocular and plasma concentrations of select compounds were measured by LC-MS/MS.

[4] = Aqueous solubility of multi-target inhibitors; format: physicochemical; details: for solubility: aqueous (not further specified)
From the text: Non-limiting examples of the useful multi-target inhibitors and their physicochemical forms are given in Table 1 with aqueous solubility information.

[5] = rat, in vivo
Protocol: (§3) This study investigated the pharmacokinetics and distribution of axitinib, sorafenib, pirfenidone, and riociguat after intraprostate injections in Wistar rats (n=6-7 per treatment group). Axitinib, sorafenib and riociguat, as 1% w/w suspension, and pirfenidone as 2.5% suspension were administered as single intraprostate injection (a total of 0.2 mL) on Days 15 and 29 in this 42-day study.

[6] = Local tolerance and ocular distribution, topical instillation three times daily for 5 days
Protocol: as §2

[7] = Suspension physical testing: particle size, pH, osmolality, syringeability; format: physicochemical; set-up: API Raw Material PSD D50 / Formulated Suspension Particle size distribution D50 / API Raw Material PSD D90 / Formulated Suspension Particle size distribution D90: unit not given here; details: for Formulated Suspension Syringeability: needle gauge passed
From the text: as §1

[8] = systemic; literature or US label; cited from earlier work
[9] = Skin pharmacokinetics after single intradermal injection in minipigs; details: over 28 days
Protocol: Pharmacokinetics of axitinib and nintedanib was investigated after a single intradermal injection of 0.1% and 1% suspensions to the dorsum of Yucatan minipigs. The dosing volume was 0.1 mL for each injection. Concentrations of drugs in the epidermis and dermis over 28 days at the injection site and at 2 cm away from the injection site were measured using LCMS/MS method.

[10] = Pharmacokinetics and distribution after intraprostate injections in rats (Example 8); details: for Plasma concentrations Mean: intraprostate injection
Protocol: as §3

[11] = two weeks after the second biweekly intraprostate injection

solubility [4] [µg/mL]	API Raw Material PSD D50 [7]	API Raw Material PSD D90 [7]	Formulated Suspension Osmolality [7] [mOsm/kg]	Formulated Suspension Particle size distribution D50 [7]	Formulated Suspension Particle size distribution D90 [7]	Formulated Suspension pH [7]	Formulated Suspension Syringeability [7]	Prostate concentrations Mean [10, 11] [µg/g]	Structure (SMILES)	granulation tissue formation compared to vehicle treated control wounds [1]	presence of myofibroblasts compared to vehicle treated control wounds [1]	SMA staining [1]	dermis fibrin [1]	dermis fibroplasia [1]	dermis provisional matrix [1]	epidermis hyperplasia [1]	inflammation [1]	Assay (% of labeled claim) of Formulated Suspension, 4 months (40° C./75% RH) [2]	Assay (% of labeled claim) of Formulated Suspension, 6 weeks (40° C./75% RH) [2]	Assay (% of labeled claim) of Formulated Suspension, Initial ([2]; initial)	other results
2 (≈ 5.17 µM)	D50: 5.5	D90: 9.9	206	D50: 5.8	D90: 15.6	7.6	Pass 25G	718	CNC(=O)c1ccccc1Sc1ccc2c(/C=C/c3ccccn3)n[nH]c2c1 [Axitinib]	delay in granulation tissue formation	prolonged presence of myofibroblasts	minimal to moderate	slight to moderate	none to slight	marked to moderate	minimal to slight	slight to moderate	95.2 % of labeled claim and 100.9 % of labeled claim	97.8 % of labeled claim and 98.5 % of labeled claim	102.0 % of labeled claim and 100.7 % of labeled claim	subcutis fibroplasia [1]: none to moderate; subcutis mixed cell infiltrate [1]: moderate to minimal; Assay (% of labeled claim) of Formulated Suspension, 4 months (40° C./75% RH) (bottom) ([2]; Autoclave, bottom, tested at 3 months instead of 4 months, 40° C./75% RH): 103.2 % of labeled claim; Assay (% of labeled claim) of Formulated Suspension, Initial (bottom) ([2]; Autoclave, initial, bottom): 100.1 % of labeled claim; Assay (% of labeled claim) of Formulated Suspension, Initial (top) ([2]; Autoclave, initial, top): 98.7 % of labeled claim; Assay (% of labeled claim) of Formulated Suspension, 4 months (40° C./75% RH) (top) ([2]; Autoclave, top, tested at 3 months instead of 4 months, 40° C./75% RH): 101.2 % of labeled claim; concentrations in the choroid and retina [3]: significant concentrations; drug concentrations in anterior tissues of conjunctiva, sclera and cornea [3]: high drug concentrations; drug concentration in prostate [5]: remained high; drug release from prostate into systemic circulation [5]: prolonged drug release; concentration at 5 day of dosing ([6]; New Zealand White, rabbit, plasma, topical, 35 μl eyedrop of 0.3% w/w to the right eye, three times daily): 0.29 ng/mL; terminal plasma half-life in man [8]: 2 to 5 h; mean concentration in the dermis, 2 cm away from the injection site ([9]; 0.1% intradermal injection): 1.2-8 ng/gm; mean concentration in the epidermis, 2 cm away from the injection site ([9]; 0.1% intradermal injection): 4.5-55.2 ng/gm; mean concentration in the dermis, 2 cm away from the injection site ([9]; 1% intradermal injection): 2.9-150 ng/gm; mean concentration in the epidermis, 2 cm away from the injection site ([9]; 1% intradermal injection): 42.3-723 ng/gm; Plasma concentrations Mean ([10]; Study Day 15, 24 h): 1.72 ng/mL; Plasma concentrations Mean ([10]; Study Day 29, 24 h): 1.49 ng/mL; Plasma concentrations Mean ([10]; Study Day 42, 0 h): 0.33 ng/mL
8 (≈ 18.9 µM)	D50: 16	D90: 29	201	D50: 9	D90: 17	7.6	Pass 27G	–	COC(=O)N(C)c1c(N)nc(-c2nn(Cc3ccccc3F)c3ncccc23)nc1N [Riociguat]	–	–	–	–	–	–	–	–	99.9 % of labeled claim and 99.7 % of labeled claim	98.7 % of labeled claim and 98.0 % of labeled claim	101.9 % of labeled claim and 100.6 % of labeled claim	Prostate concentrations Mean ([5]; male, Wistar, 2 weeks after the second injection): 492 µg/g; drug concentration in prostate [5]: remained high; drug release from prostate into systemic circulation [5]: prolonged drug release
–	D50: 18	D90: 39	216	D50: 11	D90: 20	7.3	Pass 27G	892	CNC(=O)c1cc(Oc2ccc(NC(=O)Nc3ccc(Cl)c(C(F)(F)F)c3)cc2)ccn1.Cc1ccc(S(=O)(=O)O)cc1 [Sorafenib Hemi Tosylate]	delay in granulation tissue formation	prolonged presence of myofibroblasts	slight to minimal	minimal to none	minimal to slight	slight to none	none	moderate to minimal	99.9 % of labeled claim and 99.6 % of labeled claim	100.7 % of labeled claim and 100.4 % of labeled claim	98.9 % of labeled claim and 101.6 % of labeled claim	subcutis fibroplasia [1]: minimal to moderate; subcutis mixed cell infiltrate [1]: slight to marked; Aqueous Solubility [4]: 6 µg/mL; concentrations in the choroid and retina ([6]; 0.3% w/w topical instillation): significant concentrations; drug concentrations in anterior tissues of conjunctiva, sclera and cornea ([6]; 0.3% w/w topical instillation): high drug concentrations; plasma concentrations, mean (±SD) ([6]; Day 5 of dosing, 0.3% w/w 35 μl eyedrop three times daily): 5.09 (±1.27) ng/mL; drug release from prostate into systemic circulation ([10]; after single intraprostate injections): prolonged drug release; drug concentration in prostate [10, 11]: remained high

The remaining lines, values behind:

Structure (SMILES)	solubility [4] [µg/mL]	API Raw Material PSD D50 [7]	API Raw Material PSD D90 [7]	Formulated Suspension Osmolality [7] [mOsm/kg]	Formulated Suspension Particle size distribution D50 [7]	Formulated Suspension Particle size distribution D90 [7]	Formulated Suspension pH [7]	Formulated Suspension Syringeability [7]	Prostate concentrations Mean [10, 11] [µg/g]	granulation tissue formation compared to vehicle treated control wounds [1]	presence of myofibroblasts compared to vehicle treated control wounds [1]	SMA staining [1]	dermis fibrin [1]	dermis fibroplasia [1]	dermis provisional matrix [1]	epidermis hyperplasia [1]	inflammation [1]	Assay (% of labeled claim) of Formulated Suspension, 4 months (40° C./75% RH) [2]	Assay (% of labeled claim) of Formulated Suspension, 6 weeks (40° C./75% RH) [2]	Assay (% of labeled claim) of Formulated Suspension, Initial ([2]; initial)	other results
Cc1ccc(=O)n(-c2ccccc2)c1 [Pirfenidone]	3000 (≈ 16200 µM)	D50: 57	D90: 74	312	D50: 44	D90: 72	7.6	Pass 23G	0.014	–	–	–	–	–	–	–	–	91.5 % of labeled claim and 94.9 % of labeled claim	89.9 % of labeled claim and 95.7 % of labeled claim	90.9 % of labeled claim and 97.2 % of labeled claim	Plasma concentrations Mean ([10]; Study Day 15, 24 h): 0.381 ng/mL; Plasma concentrations Mean ([10]; Study Day 29, 24 h): 0.454 ng/mL; Plasma concentrations Mean ([10]; Study Day 42, 0 h): BLQ
CCN(CC)CCNC(=O)c1c(C)[nH]c(/C=C2\C(=O)Nc3ccc(F)cc32)c1C [Sunitinib]	7 (≈ 17.6 µM)	D50: 25	D90: 52	201	D50: 12	D90: 26	7.6	Pass 25G	–	–	–	–	–	–	–	–	–	100.0 % of labeled claim and 95.6 % of labeled claim	98.9 % of labeled claim and 96.5 % of labeled claim	96.7 % of labeled claim and 95.1 % of labeled claim	–
CNC(=O)c1cc(Oc2ccc(NC(=O)Nc3ccc(Cl)c(C(F)(F)F)c3)c(F)c2)ccn1 [regorafenib, Regorafenib]	–	–	–	–	–	–	–	–	–	–	–	–	–	–	–	–	–	–	–	–	terminal plasma half-life in man [8]: 28 h
